Source: patent publication US20240197729A1, “ALK-5 Inhibitors and Uses Thereof” (Sumitomo Pharma Oncology, Inc., priority 2021, published 2024)

Legend:
[1] = test system: TGF-β-induced pan-collagen expression; assay: In vitro 3D liver fibrosis assay (HepaRG NP 3D model); format: cell-based; conditions: 1 μM, 100 ng/mL TGF-β1, 72 hours
Procedure: An additional fibrosis assay was carried out with selected compounds using the Visikol OpenLiver™ HepaRG™ NP 3D model directed at fibrosis. The OpenLiver™ HepaRG™ NP 3D model features the ability to recapitulate a number of liver disease pathologies. Whether evaluating the disease-inducing liability of a compound or exploring targets to exploit for therapeutic amelioration of disease state, the HepaRG™ NP 3D model is capable of recapitulating disease features such hepatocellular lipid accumulation, nonparenchymal cell phenotype shift, and collagen matrix deposition.
HepaRGs (Lonza, NSHPRG, Lot #HNS1013) and non-parenchymal (NP) cells (Stellates, Kupffers and LSECS (Lonza, Lot HUM201221)) were thawed, assessed for viability and seeded at a hepatocyte to NP cell ratio of 60:40 into an ultra-low attachment round-bottom plate (Corning, 4515). The cells were initially cultured in William's E medium supplemented with HepaRG Thaw, Plate & General Purpose Supplement (Thermo Fisher, HPRG770) and GlutaMax (Thermo Fisher, 35050061) overnight. The next day the medium was half exchanged with William's E medium supplemented with HepaRG Maintenance Supplement (Thermo Fisher, HPRG720) and GlutaMax (Thermo Fisher, 35050061). […]
Clearing the spheroid with Visikol HISTO-M™ allows for clear images throughout the spheroid volume, therefore allowing the entire z-stack to be analyzed. […]

[2] = test system: TGF-β1-mediated αSMA expression; conditions: human, 73 h
Procedure: To test the ability of selected compounds to inhibit the TGF-β1-dependent transition of fibroblasts to myofibroblasts in a relevant disease model of IPF, an FMT assay was performed using lung fibroblasts from IPF patients. In this assay, the transition of fibroblasts to myofibroblasts is determined by the expression of the biomarker alpha smooth muscle actin (α-SMA).
Primary human bronchial fibroblasts derived from IPF patients were seeded on day zero and the media was refreshed on day two. On day five, selected compounds or controls were added at an eight-point concentration response curve starting at 10 μM (semi-log dilutions). Each drug concentration condition was evaluated in biological duplicates. […] Seventy-two hours following TGF-beta addition, the cells were fixed with formaldehyde. High content imaging evaluating cell number using the nuclear stain DAPI as well as the expression of a-SMA was performed. The following controls were run alongside the selected compounds: vactosertib and the approved IPF drug nintedanib (at an eight-point, semi-log curve with 10 μM starting concentration). As a negative control 0.1% DMSO was also used, matching the DMSO concentration in treated wells. The following calculations were used to determine cell number as well as percent inhibition (PIN) of alpha SMA expression:
• Segmentation and quantification of αSMA immunoreactivity by an HCA algorithm, with density×area (D×A) output • Data normalization of raw αSMA (D×A) to percentage inhibition (PIN) values, on a plate-to-plate basis
• DAPI fluorescence applied for HCA-based quantification of the number of imaged cells, on a plate-to-plate basis
[formula] • μn is the average numbers of nuclei of the vehicle control (TGF-β1+0.1% DMSO) • Xi is the compound number of nuclei

`Clc1cccc2c(Nc3ccnc(Nc4cccc(N5CCOCC5)c4)c3)cnnc12` [Compound 04, N4-(8-chlorocinnolin-4-yl)-N2-[3-(morpholin-4-yl)phenyl]pyridine-2,4-diamine] was tested, and the TGF-β-induced pan-collagen expression [1] was “inhibited TGF-β-induced pan-collagen expression”.

`Cc1nn(CC(F)(F)F)cc1Nc1cc(Nc2cnnc3c(C)cccc23)ccn1` [Compound 01, N2-[3-methyl-1-(2,2,2-trifluoroethyl)-1H-pyrazol-4-yl]-N4-(8-methylcinnolin-4-yl)pyridine-2,4-diamine] was tested, and the TGF-β-induced pan-collagen expression [1] was “inhibited TGF-β-induced pan-collagen expression”.

Work on `Cc1cccc(-c2[nH]c(CNc3ccccc3F)nc2-c2ccc3ncnn3c2)n1` [Vactosertib, vactosertib, reference compound] yielded a Potentially toxic concentration [2] of 5.0.
